# Experimental data published in patent US12059565B1, “Methods and systems for modulating unconsciousness or anesthesia in a subject” (priority 2019, dated 2024).
# Columns and labels:
# alpha2 receptors = conditions: cited from earlier work
# [1] = system: EEG SWA / behavioral responsiveness; conditions: during TCI dexmedetomidine sedation; expected, based on Sleigh and colleagues
# From the text: Participants will undergo three arousals during this phase of the experiment: one during in-phase stimulation, one during anti-phase stimulation, and one during sham stimulation (FIG. 13). The order of CLASS conditions under which a participant will be aroused is the same as in Phase 2, which is balanced across participants. Each arousal will be preceded by at least three consecutive minutes of acoustic stimulation, which will continue during the arousal procedure. The arousal procedure consists of the same ramping thermal stimulation used during pre-sedation QST. The cardinal difference between pre-sedation QST and arousal QST is that one of the investigators will be tasked with pressing the button to end the thermal ramp instead of the sedated participant. The investigator will end the arousal protocol as soon as they observe purposeful behavior in response to the thermal stimulation. The investigator will also be able to terminate the thermal stimulation at their clinical discretion. Vital signs, EEG, and video recording will allow review of the time of arousal during post-hoc analysis. […] Assessors of arousal will be blinded to the acoustic stimulation conditions. Once a participant has been definitively aroused, thermal stimulation will cease. […]
# [2] = healthy volunteers; conservative estimate; cited from earlier work
# [3] = infused for several hours to days at 1.5 mcg/kg/hr, critically ill patients; cited from earlier work
# [4] = target effect site concentrations of 2.0-4.0 ng/ml, most participants
smiles,measurement,setting,value
Cc1cccc([C@H](C)c2cnc[nH]2)c1C [dexmedetomidine],most common adverse events,alpha2 receptors; dexmedetomidine infusions,"bradycardia, hypotension and hypertension"
same,haemodynamic effect at low plasma concentrations,"alpha2 receptors; plasma concentration <1 ng/ml, agonism at alpha2 receptors in the central nervous system",decrease in peripheral vascular resistance and heart rate
same,haemodynamic effect at higher plasma concentrations,"alpha2 receptors; plasma concentration >4 ng/ml, agonism at alpha2 receptors on vascular smooth muscle",hypertension and worsening reflex bradycardia
same,HR,alpha2 receptors; [4],> 75 % from baseline
same,MAP,alpha2 receptors; [4],near-baseline
same,level of sedation,alpha2 receptors; [4],moderately sedated
same,time for EEG SWA to return to pre-arousal levels,[1],≤ 10 min
same,time to return to a state of unresponsiveness after thermal arousal,[1],≤ 60 s
same,equilibration constant (t1/2 ke0),[2],3 min
same,steady-state concentration,[3],2.5 to 3.0 ng/mL
